Experimental data as given in patent publication US20030125235A1, “Treatment of diseases associated with cytokine production with inhibitors of the tec family of protein tyrosine kinases” (priority 2000, published 2003).

How the values were obtained:
TNF production = settings: cited from earlier work; for LPS-induced TNF production: Geng et al. 1993
[1] = system: RAW 264.7 murine macrophages; experiment: LPS-induced TNF-α production in RAW 264.7 murine macrophages (ELISA); type: cell-based
Procedure: The murine macrophage cell line, Raw 264.7 were maintained in DMEM medium supplemented with 100 units/ml penicillin/streptomycin and 5% heat-inactivated fetal calf serum at 37° C. in a humidified atmosphere containing 5% CO2.
(§1) Supernatants from experiments using either human macrophages, rheumatoid synovial cells or PBMCs were analyzed for TNF-α ot IL-1 by enzyme-linked immunosorbent assay (ELISA). The ELISA for hTNF-α was performed as described by Engelberts et al. (1991) Lymphokine Cytokine Res. 10, 60-76.
This compound was investigated for its effects on TNF-α production. […] Supernatants were then harvested and assayed for TNF-α by ELISA as described in the Methods section.

human monocytes = settings: Stefanova et al. 1993; cited from earlier work
[2] = system: RA synovial membrane cultures; experiment: Spontaneous TNF production in rheumatoid arthritis synovial membrane cultures (ELISA); type: cell-based, human; settings: overnight culture; FIG. 10
Procedure: Synovium from rheumatoid patients undergoing joint replacement surgery was dissociated by cutting into small pieces, digested with collagenase and DNase (Buchan et al., 1988). The total cell mixture consisting predominantly of T cells and macrophages were cultured at a density of 1×10^6 cells/ml in RPMI containing 100 units/ml penicillin/streptomycin and 5% heat-inactivated fetal calf serum.
as §1
RA synovial cultures were treated with herbimycin at the given concentrations. Following overnight culture the supernatants were harvested and TNF expression measured by ELISA.

Lyn, Syk or MAP kinases = settings: Kawakami et al. 1999; cited from earlier work
Btk = Btk (Homo sapiens, UniProt Q06187); settings: literature (Kawakami et al. 1999; Mahajan et al. 1999); cited from earlier work
Chain of Btk (Q06187 whole entry, species assumed): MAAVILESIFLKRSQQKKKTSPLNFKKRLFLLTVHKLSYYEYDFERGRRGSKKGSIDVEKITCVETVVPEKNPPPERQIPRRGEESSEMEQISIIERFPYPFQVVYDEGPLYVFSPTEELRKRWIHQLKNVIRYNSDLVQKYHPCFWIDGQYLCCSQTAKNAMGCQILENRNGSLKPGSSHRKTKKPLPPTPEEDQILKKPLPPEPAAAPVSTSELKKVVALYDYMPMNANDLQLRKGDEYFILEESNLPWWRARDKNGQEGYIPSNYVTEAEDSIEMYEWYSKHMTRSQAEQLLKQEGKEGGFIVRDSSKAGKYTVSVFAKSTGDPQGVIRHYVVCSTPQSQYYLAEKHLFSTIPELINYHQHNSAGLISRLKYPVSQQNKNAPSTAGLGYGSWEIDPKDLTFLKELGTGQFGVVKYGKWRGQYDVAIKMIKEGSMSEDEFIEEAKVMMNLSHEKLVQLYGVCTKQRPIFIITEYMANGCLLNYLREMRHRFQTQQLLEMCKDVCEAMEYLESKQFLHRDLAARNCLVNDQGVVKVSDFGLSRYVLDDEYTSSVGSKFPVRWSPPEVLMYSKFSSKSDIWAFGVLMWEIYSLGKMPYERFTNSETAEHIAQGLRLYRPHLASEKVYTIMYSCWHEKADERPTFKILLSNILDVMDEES

Compound: O=c1c(-c2ccc(O)cc2)coc2cc(O)cc(O)c12 [genistein]
- LPS-induced TNF production (TNF production): block

Compound: C/C(O)=C(\C#N)C(=O)Nc1cc(Br)ccc1Br [LFM-A13]
- inhibition of LPS-induced TNF-α expression ([1]; 200 μM, 1 h pretreatment, LPS 10 ng/ml for 4 h, FIG. 3): 44%
- toxicity limiting the usable concentration ([1]; above 200 μM): toxicity
- block of LPS-induced TNF-α expression (concentration dependence) ([1]; various concentrations, 1 h pretreatment, LPS 10 ng/ml for 4 h, FIG. 3): dose-dependent manner

Compound: N#CC(C#N)=Cc1ccc([N+](=O)[O-])c(O)c1 [tyrophostin AG126]
- TNF production (TNF production; Novogradsky et al. 1994): block

Compound: CO[C@H]1[C@@H](OC)C[C@H](C)[C@@H](OC)C2=CC(=O)C=C(NC(=O)/C(C)=C/C=C\[C@H](OC)[C@@H](OC(N)=O)/C(C)=C/[C@@H]1C)C2=O [herbimycin]
- LPS-induced TNF production (TNF production): block
- LPS-induced production of TNF-α and IL-1 (human monocytes): completely blocks
- inhibition of spontaneous TNF production [2]: potent inhibitor

Compound: CC1=C(O)C(=O)[C@@H]2O[C@@H]2C1=O [Terreic acid]
- effect on activity of Lyn, Syk or MAP kinases (Lyn, Syk or MAP kinases): without affecting the activity
- inhibition of Btk (Btk): inhibit Btk
